Patent US20160317531A1, “RIBONUCLEOTIDE REDUCTASE INHIBITORS SENSITIZE TUMOR CELLS TO DNA DAMAGING AGENTS” (THE GENERAL HOSPITAL CORPORATION, priority 2013, published 2016)

Tests used:
Notch signalling = assay: RBP-Jk-Fluc reporter assay in 293T cells; format: cell-based
Procedure: 293T cells were infected with lenti-RBP-Jk-Fluc vector and treated with 50 μM HU or γ-secretase inhibitor DAPT for […]. Cell lysates was imaged and analyzed for Fluc activity with the Xenogen IVIS 200 Imaging System. **p<0.01 vs. DMSO (n=8 for DMSO, n=5 for HU or DAPT treatment).
(§1) Since HU is known to target ribonucleotide reductase subunit 2 (RNR), knockdown experiment was first performed in different cell lines using shRNA against RNR (shRNR) or scrambled control (ShScram) and different concentrations of TMZ. […] Other ribonucleotide reductase (RNR) inhibitors were further evaluated to determine if a similar effect as HU is obtained on GBM. GBM cells from recurrent tumors expressing Gluc were treated in a 96-well plate with either fludarabine or gemcitabine—classical RNR inhibitors—and cell viability was assessed by the Gluc assay. […] The RBP-Jk-Fluc reporter plasmid which carries RBP-Jk transcriptional response element driving the expression of Fluc34 was used. RBP-Jk is a DNA binding transcription factor and a direct downstream modulator of Notch signalling. Thus, this reporter can indirectly monitor Notch activity (Minoguchi, S., et al., Mol Cell Biol 1997, 17, 2679-2687). 293T cells were transfected with this plasmid, treated with 30 μM HU, and monitored Fluc activity 3 days later.

[1] = system: U87R1, U87R2, SNZ308R1, SNZ308R2, HS683R1 and HS683R2 TMZ-resistant cells; assay: Gluc cell viability assay, TMZ-resistant glioma subclones; format: cell-based
Procedure: (§2) FIG. 1A is a set of graphs showing the effects of TMZ on tumor cells. U87, SNZ308, HS683 parental cells (P) and resistant clones (Res) were treated with different amounts of TMZ. After four days aliquots of conditioned medium were assayed for Gluc activity using 50 μl 2 μg/ml coelenterazine.
FIG. 1B is a set of graphs showing the effects of TMZ+HU on tumor cells. U87 and resistant clones R1/R2 were treated with TMZ and/or 100 μM HU. Cell viability was assessed by the Gluc assay.
The inventors previously generated two independent TMZ-resistant subclones from three different glioma cell lines (U87, SNZ308 and HS683) by long-term exposure (two times per week over seven weeks) to 100 μM TMZ, generating U87R1, U87R2, SNZ308R1, SNZ308R2, HS683R1 and HS683R2. These cells together with their parental counterparts were first engineered by lentivirus vector transduction to stably express the naturally secreted Gaussia luciferase (Gluc) as a reporter for cell viability. […] In this case, cell viability can be monitored over time by assaying aliquots of conditioned medium from these cells for Gluc activity. […] Using the U87R1 and U87R2 TMZ-resistant cells and the Gluc high-throughput screening assay (Badr, C. E., et al., Assay Drug Dev Technol, 2011 9, 281-289), a small library of 100 known anti-cancer agents was screened in the presence and absence of 100 μM TMZ. […]

[2] = format: in vivo; conditions: mice treated four consecutive days; HU 30 mg/kg, TMZ 30 mg/kg
Procedure: Primary GBM8 cells24 (from newly diagnosed tumor with methylated MGMT (Wakimoto, H., et al., Neuro Oncol 2012, 14, 132-144)) were grown in stem cell media as neural spheres. […] Upon intracranial injection, these cells formed tumors and infiltrated the brain of nude mice similar to human tumors (FIGS. 4A-4C). This model was used to test the efficacy of HU in combination with TMZ. Four weeks after implantation of 100,000 GBM8 cells, when tumors started to rapidly grow (as observed by Fluc imaging), mice were divided into two groups (n=20/group) which received DMSO vehicle or i.p. injection of 30 mg/kg TMZ four days/week over two weeks. […] Mice were then left off TMZ to allow for GBM tumors to recur potentially becoming resistant to TMZ, recapitulating the patient scenario. […] Next, the toxicity of this combined therapy was assessed by treating mice with either DMSO, TMZ, HU, or HU+TMZ for four consecutive days and analyzing the blood for white blood cells (WBC), hematocrit (HCT), mean corpuscular volume (MCV), red cell distribution width (RDW), hemoglobin (HGB), mean corpuscular hemoglobin (MCH), red blood cells (RBC), platelets (PLT), and mean platelet volume (MPV). […] Hematotoxicity on bone marrow was also evaluated by preparing bone marrow smears and counting viable cells from untreated and TMZ/HU-treated naïve mice as above.

melanoma cells = assay: Sensitization of melanoma cells to TMZ; format: cell-based; conditions: FIG. 7
[3] = for certain chemotherapeutics; cited from earlier work
malignant gliomas = conditions: in combination with radiation or cytotoxic chemotherapy, not TMZ; cited from earlier work
U87 tumors = assay: Intracranial U87-Fluc tumor model, Fluc imaging and survival; conditions: 5 mg/kg TMZ i.p., 50 mg/kg HU i.p., start one week post-implantation
Procedure: U87 cells (20,000 cells/mouse) expressing Fluc were implanted in the brain of nude mice. One week later, mice were divided in four groups (n=10-20/group) and treated with 1). DMSO vehicle as control, 2). 50 mg/kg HU, 3). 1 mg/kg TMZ or 4). 1 mg/kg TMZ+50 mg/kg HU. In FIG. 2A, tumor growth was monitored over time by Fluc imaging. X-axis, days after treatment starts. In FIG. 2B, survival was recorded to generate the Kaplan-Meier plot. X-axis, days after treatment starts.
U87 cells (20,000 cells/mouse) expressing Fluc were implanted in the brain of nude mice. One week later, mice were divided in four groups (n=10-20/group) and treated with 1). DMSO vehicle as control, 2). 50 mg/kg HU, 3). 5 mg/kg TMZ or 4). 5 mg/kg TMZ+50 mg/kg HU. In FIG. 2C, tumor growth was monitored over time by Fluc imaging. X-axis, days after treatment starts. In FIG. 2D, survival was recorded to generate the Kaplan-Meier plot. X-axis, days after treatment starts.
U87 or U87R1 cells were first transduced with a lentivirus vector to stably express firefly luciferase (Fluc), a reporter which can be used to track tumor growth in vivo (Wurdinger, T., et al., Nat Methods 2008, 5, 171-173). Fifty thousands of these cells were intracranially injected in the brain of nude mice as previously described. One week post-tumor implantation, mice were randomized into four different groups receiving: (1) DMSO vehicle control; (2) intraperitoneal (i.p) injection of 5 mg/kg TMZ; (3) 50 mg/kg HU i.p.; (4) combination of TMZ+HU. Tumor growth was monitored over time by in vivo Fluc bioluminescence imaging using a cooled CCD camera (Wurdinger, T., et al., Nat Methods 2008, 5, 171-173).
GBM cells were first transduced with a lentivirus vector to stably express Fluc. Fifty thousands of these cells were intracranially injected in the brain of nude mice using the following coordinates from the bregma in mm: anterior-posterior +0.5 mm, medio-lateral +2.0 mm, dorso-ventral −2.5 mm. One week after implantation of 50,000 (low amount) or 200,000 (high amount) GBM cells, or 100 GBM spheres, mice were randomized into different treatment groups. Tumor growth was monitored over time by in vivo Fluc bioluminescence imaging after i.p. injection of 200 mg/kg D-luciferin substrate and acquiring signal using a cooled CCD camera (Wurdinger, T., et al., Nat Methods 2008, 5, 171-173).

U87R1 tumors = assay: Intracranial U87R1-Fluc (TMZ-resistant) tumor model, Fluc imaging and survival; conditions: 5 mg/kg TMZ i.p., 50 mg/kg HU i.p., start one week post-implantation
Procedure: U87R1 cells (20,000 cells/mouse) expressing Fluc were implanted in the brain of nude mice. One week later, mice were divided in four groups (n=10-20/group) and treated with 1). DMSO vehicle as control, 2). 50 mg/kg HU, 3). 5 mg/kg TMZ or 4). 5 mg/kg TMZ+50 mg/kg HU. In FIG. 2E, tumor growth was monitored over time by Fluc imaging. […] In FIG. 2F, survival was recorded to generate the Kaplan-Meier plot.
200,000 U87R1 cells expressing Fluc were implanted in the brain of nude mice. Two weeks later, mice were divided in two groups (n=10/group) and treated with either TMZ or TMZ+HU. Survival was recorded.
U87R1 cells expressing Fluc were implanted in the brain of nude mice. One week later, mice were divided in four groups (n=10-20/group) and treated with either DMSO vehicle, radiation (R; 3 Gy), HU, TMZ or R+TMZ+HU. Tumor growth was monitored over time by Fluc imaging and survival was recorded to generate the Kaplan-Meier plot.
U87 or U87R1 cells were first transduced with a lentivirus vector to stably express firefly luciferase (Fluc), a reporter which can be used to track tumor growth in vivo (Wurdinger, T., et al., Nat Methods 2008, 5, 171-173). Fifty thousands of these cells were intracranially injected in the brain of nude mice as previously described. One week post-tumor implantation, mice were randomized into four different groups receiving: (1) DMSO vehicle control; (2) intraperitoneal (i.p) injection of 5 mg/kg TMZ; (3) 50 mg/kg HU i.p.; (4) combination of TMZ+HU. Tumor growth was monitored over time by in vivo Fluc bioluminescence imaging using a cooled CCD camera (Wurdinger, T., et al., Nat Methods 2008, 5, 171-173). […]
GBM cells were first transduced with a lentivirus vector to stably express Fluc. […] Tumor growth was monitored over time by in vivo Fluc bioluminescence imaging after i.p. injection of 200 mg/kg D-luciferin substrate and acquiring signal using a cooled CCD camera (Wurdinger, T., et al., Nat Methods 2008, 5, 171-173).

[4] = system: U87, SNZ308, HS683 parental cells; assay: Gluc cell viability assay, parental glioma cell lines; format: cell-based; conditions: different amounts of TMZ, four days
Procedure: as §2
The inventors previously generated two independent TMZ-resistant subclones from three different glioma cell lines (U87, SNZ308 and HS683) by long-term exposure (two times per week over seven weeks) to 100 μM TMZ, generating U87R1, U87R2, SNZ308R1, SNZ308R2, HS683R1 and HS683R2. These cells together with their parental counterparts were first engineered by lentivirus vector transduction to stably express the naturally secreted Gaussia luciferase (Gluc) as a reporter for cell viability. […] In this case, cell viability can be monitored over time by assaying aliquots of conditioned medium from these cells for Gluc activity. […] Using the U87R1 and U87R2 TMZ-resistant cells and the Gluc high-throughput screening assay (Badr, C. E., et al., Assay Drug Dev Technol, 2011 9, 281-289), a small library of 100 known anti-cancer agents was screened in the presence and absence of 100 μM TMZ. […] The same results were obtained when HU was used in combination with TMZ on SNZ308 and HS683 resistant lines (data not shown).

[5] = system: GBM8 tumors carrying methylated MGMT promoter; assay: Intracranial primary GBM8-Fluc-mCherry tumor model; format: in vivo, nude mice
Procedure: FIG. 4A is an image showing that 10^5 GBM8 cells expressing Fluc and mCherry were stereotactically injected into the left midstriatum of nude mice brain.
FIG. 4D is a set of images showing the in vivo effects of TMZ+HU treatments on mice. Mice-bearing GBM8-Fluc-mCherry tumors were treated with TMZ or vehicle for two weeks, then left off TMZ for three weeks. TMZ-treated group was then divided into four subgroups which received vehicle, HU, TMZ, or HU+TMZ.
Primary GBM8 cells24 (from newly diagnosed tumor with methylated MGMT (Wakimoto, H., et al., Neuro Oncol 2012, 14, 132-144)) were grown in stem cell media as neural spheres. […] Upon intracranial injection, these cells formed tumors and infiltrated the brain of nude mice similar to human tumors (FIGS. 4A-4C). This model was used to test the efficacy of HU in combination with TMZ. Four weeks after implantation of 100,000 GBM8 cells, when tumors started to rapidly grow (as observed by Fluc imaging), mice were divided into two groups (n=20/group) which received DMSO vehicle or i.p. injection of 30 mg/kg TMZ four days/week over two weeks. […] Mice were then left off TMZ to allow for GBM tumors to recur potentially becoming resistant to TMZ, recapitulating the patient scenario. At this point, the TMZ group was divided into four subgroups (n=10/group) which received either DMSO, HU (50 mg/kg), TMZ (30 mg/kg) or HU+TMZ four days/week over three weeks. […] Next, the toxicity of this combined therapy was assessed by treating mice with either DMSO, TMZ, HU, or HU+TMZ for four consecutive days and analyzing the blood for white blood cells (WBC), hematocrit (HCT), mean corpuscular volume (MCV), red cell distribution width (RDW), hemoglobin (HGB), mean corpuscular hemoglobin (MCH), red blood cells (RBC), platelets (PLT), and mean platelet volume (MPV). No significant difference between different treated groups in comparison to DMSO control was found (Table 1). Hematotoxicity on bone marrow was also evaluated by preparing bone marrow smears and counting viable cells from untreated and TMZ/HU-treated naïve mice as above.

[6] = system: TMZ-resistant primary glioma rpGBMa cells; assay: Gluc cell viability assay, recurrent GBM cells with RNR inhibitors and TMZ; format: cell-based; conditions: GBM cells from recurrent tumors, four days
Procedure: FIG. 5A is a plot showing that glioma cells are sensitized to TMZ by ribonucleotide reductase inhibition. 3×10^3 TMZ-resistant primary glioma rpGBMa cells expressing Gluc were treated with […] of ribonucleotide reductase (RNR) inhibitor Fludarabine or Gemcitabine, in the presence or absence of 100 μM TMZ. After four days aliquots of conditioned medium were assayed for Gluc activity using 50 μl 2 μg/ml coelenterazine. Data presented as the mean Gluc RLU/mL +/−SD (n=8; **p<0.01 vs. no TMZ treatment by two-way ANOVA).
as §1, with “RBP-Jk is a DNA binding transcription factor and a direct downstream modulator of Notch signalling. Thus, this reporter can indirectly monitor Notch activity (Minoguchi, S., et al., Mol Cell Biol 1997, 17, 2679-2687).” left out

GBM = conditions: cited from earlier work
[7] = second round, HU 50 mg/kg, TMZ 30 mg/kg, four days/week over three weeks

Q: For `C[C@H](NC(=O)Cc1cc(F)cc(F)c1)C(=O)N[C@H](C(=O)OC(C)(C)C)c1ccccc1` [DAPT], which “change of Fluc activity” value (Notch signalling; γ-secretase inhibition) is on record?
A: decrease of Fluc activity similar to HU

Q: Which “sensitization of resistant cells to TMZ” value ([1]; U87R1 and U87R2, 100 μM HU, TMZ) does the source give for `NC(=O)NO` [HU, hydroxyurea] here?
A: sensitize both resistance cell lines to TMZ

Q: What about the MPV [2] of the same compound?
A: 6.3 ± 0.4

Q: What about the “decrease in Fluc activity” value (Notch signalling; 30 μM HU, 3 days) of the same compound?
A: 50%

Q: And the “sensitization of melanoma cells to TMZ” value (melanoma cells)?
A: sensitizes melanoma cells to TMZ

Q: And the “effect on blood brain tumor permeability” value [3]?
A: increases the blood brain tumor permeability of certain chemotherapeutics

Q: What about the “efficacy in malignant gliomas” value (malignant gliomas) of the same compound?
A: limited efficacy

Q: What about the mice survival (U87 tumors) of the same compound?
A: no significant effect

Q: What about the “tumor growth (Fluc bioluminescence imaging)” value (U87 tumors) of the same compound?
A: no significant effect

Q: What about the mice survival (U87R1 tumors) of the same compound?
A: no significant effect

Q: What about the “tumor growth (Fluc bioluminescence imaging)” value (U87R1 tumors) of the same compound?
A: no significant effect

Q: For `Cn1nnc2c(C(N)=O)ncn2c1=O` [TMZ, 4-methyl-5-oxo-2,3,4,6,8-pentazabicyclo[4.3.0]nona-2,7,9-triene-9-carboxamide], which “cell viability (Gluc activity) on exposure to TMZ” value [4] is on record?
A: sensitive to TMZ in a dose-dependent fashion

Q: And the “cell viability (Gluc activity) on exposure to TMZ” value ([1]; resistant cell lines, up to 100 μM TMZ)?
A: no significant effect

Q: What about the “tumor response, first round of treatment” value ([5]; 30 mg/kg TMZ i.p. four days/week over two weeks, start four weeks after implantation) of the same compound?
A: responded very well

Q: And the “survival rate, recurred tumors after TMZ break” value [5, 7]?
A: not a significant increase

Q: And the “tumor volume / tumor growth, recurred tumors after TMZ break” value [5, 7]?
A: moderate effect

Q: What about the MPV [2] of the same compound?
A: 6.5 ± 0.4

Q: And the “cell viability (Gluc assay), TMZ alone” value ([6]; 100 μM TMZ)?
A: moderate-to-no effect

Q: What about the median survival (GBM; TMZ added to standard of care including surgery and radiation, 12.1 months without) of the same compound?
A: 14.6 months

Q: What about the “patients who die after 5 years” value (GBM; patients receiving both TMZ and radiation) of the same compound?
A: 90%

Q: What about the “overall 2 years survival” value (GBM; randomized phase III, combined therapy, 10.9% without) of the same compound?
A: 27.2%

Q: What about the mice survival (U87 tumors) of the same compound?
A: moderate effect

Q: What about the “tumor growth (Fluc bioluminescence imaging)” value (U87 tumors) of the same compound?
A: moderate effect

Q: And the “tumor growth (Fluc bioluminescence imaging)” value (U87R1 tumors)?
A: not on U87R1 tumors

Q: For `Nc1ccn([C@@H]2O[C@H](CO)[C@@H](O)C2(F)F)c(=O)n1` [gemcitabine, 4-amino-1-(2-deoxy-2,2-difluoro-β-D-erythro-pentofuranosyl)pyrimidin-2(1H)-on], which “sensitization of GBM cells to TMZ” value ([6]; RNR inhibitor in presence or absence of 100 μM TMZ) is on record?
A: sensitized GBM cells to TMZ
